From EP4732841A1, “FOAM SCLEROSANT COMPOSITION, AND PREPARATION METHOD THEREFOR AND USE THEREOF” (Jenkem Technology Co., Ltd. (Beijing), priority 2023, dated 2025)

Columns and labels:
[1] = Foam stability of polidocanol with single molecular weight (Tessari method); assay type: physicochemical; settings: for Foam coalescence time / Foam drainage time: 1% solution in 4% solution of ethanol in PBS, Tessari method, gas-to-liquid ratio 3:1; for foam formed after thorough mixing with air: 1% solutions mixed with air at a volume ratio of 1:3
Protocol: Samples of polidocanol with a single molecular weight (DD-PEG8-OH, DD-PEG9-OH, and DD-PEG10-OH prepared in Example 1) and a control (polidocanol in a mixture state containing different molecular weights, purchased from Siegfried Hameln GmbH, Germany, batch number OK13103) were separately weighed and prepared into 1% solutions using a 4% solution of ethanol in PBS. The polidocanol was foamed using the Tessari method, i.e., two 2.5 mL syringes were connected via a three-way tube and rapidly pushed and pulled back and forth at a gas-to-liquid ratio of 3:1 until foam formed. All foam was collected into one syringe, the volume was brought to 2 mL, and the foam state was observed while standing. The following parameters were recorded: foam drainage time, foam halflife time, and foam coalescence time.

rabbit marginal ear vein = test: Venous sclerosing effect in the rabbit marginal ear vein model; assay type: in vivo; settings: maximum volume 0.25 mL, calculated on number of rabbit ears
Protocol: The rabbit marginal ear vein was used as an experimental model to compare the effects of adding different concentrations of sodium hyaluronate on the venous sclerosing effect of polidocanol. The specific method was as follows: (1) Domestic rabbits were anesthetized with xylazine (2-5 mg/kg, intramuscular injection). Subsequently, the hair on the ears was shaved, and the area was disinfected using a 0.5% chlorhexidine alcohol solution. (2) The Tessari method was used to foam the polidocanol with the addition of sodium hyaluronate, i.e., two 10 mL syringes were connected via a three-way tube and rapidly pushed and pulled back and forth at a certain gas-to-liquid ratio until foam was formed. (3) A disposable syringe was used to puncture the marginal vein, and the sclerosant was injected slowly, with a maximum volume of 0.25 mL. […]
In this example, 14 days after the injection of different types of polidocanol into some rabbit marginal ear veins, some blood vessels were occluded. […] All rabbit ear blood vessels were scored, with effective ones recorded as 1 and ineffective ones recorded as 0.
The calculation rule for the effective rate was as follows: effective rate = score of rabbit ears/total number of rabbit ears × 100% (calculated based on the number of rabbit ears).
All rabbit ear blood vessels were scored, with effective ones recorded as 1 and ineffective ones recorded as 0. […]

Row | Foam coalescence time [1] | Foam drainage time [1] | Foam coalescence time ([1]; listed as P8 (1%)) | foam formed after thorough mixing with air [1] | Foam coalescence time ([1]; listed as P10 (1%)) | Compound | D14 effective rate (%) (rabbit marginal ear vein; venous sclerosis 14 days after injection of foam into rabbit marginal ear veins) | D21 effective rate (%) (rabbit marginal ear vein; venous sclerosis 21 days after injection of foam into rabbit marginal ear veins)
1 | 13 min | 3 s | 13 m | formed homogeneous foam | – | CCCCCCCCCCCCOCCOCCOCCOCCOCCOCCOCCOCCO [P8] | – | –
2 | – | – | – | – | – | CCCCCCCCCCCCOCCOCCOCCOCCOCCOCCOCCOCCOCCO [P9] | 91.67% | 83.33%
3 | 20 min | 8 s | – | formed homogeneous foam | 20 m | CCCCCCCCCCCCOCCOCCOCCOCCOCCOCCOCCOCCOCCOCCO [P10] | – | –
